These results are taken from US11840686B2, “Modulation of prekallikrein (PKK) expression” (Ionis Pharmaceuticals, Inc., priority 2013, dated 2023).

Strand notation (5' to 3'): a small letter for the sugar, then the base; units joined by * are phosphorothioate-linked, units joined directly phosphodiester-linked; [ ] holds rarer units or linkages, { } end groups; capitals alone tell only the bases. e = 2'-O-(2-methoxyethyl) (MOE); [5mC] = 5-methylcytosine; d = 2'-deoxy (DNA)

For the data set, the system named is human PKK mRNA. In words: Antisense inhibition of human PKK mRNA in HepaRG cells, 3,000 nM (Example 1). In kind it is cell-based. As to conditions: relative to untreated control cells. The procedure: Antisense oligonucleotides were designed targeting a PKK nucleic acid and were tested for their effects on PKK mRNA in vitro. HepaRG™ cells, which are terminally differentiated hepatic cells derived from a human hepatic progenitor cell line and retain many characteristics of primary human hepatocytes (Lubberstedt M. et al., J. Pharmacol. Toxicol. Methods 2011 63: 59-68), were used in the screen.
The chimeric antisense oligonucleotides in the tables below were designed as 5-10-5 MOE gapmers. The gapmers are 20 nucleosides in length, wherein the central gap segment comprises of ten 2′-deoxynucleosides and is flanked by wing segments on the 5′ direction and the 3′ direction comprising five nucleosides each. Each nucleoside in the 5′ wing segment and each nucleoside in the 3′ wing segment has a 2′-O-methoxyethyl modification. The internucleoside linkages throughout each gapmer are phosphorothioate linkages. All cytosine residues throughout each gapmer are 5-methylcytosines. “Start site” indicates the 5′-most nucleoside to which the gapmer is targeted in the human gene sequence. “Stop site” indicates the 3′-most nucleoside to which the gapmer is targeted in the human gene sequence.
Cultured HepaRG™ cells at a density of 20,000 cells per well were transfected using electroporation with 3,000 nM antisense oligonucleotide. After a treatment period of approximately 24 hours, RNA was isolated from the cells and PKK mRNA levels were measured by quantitative real-time PCR. Human primer probe set RTS3454 (forward sequence […], designated herein as SEQ ID NO: 20; reverse sequence […], designated herein as SEQ ID NO: 21; probe sequence […], designated herein as SEQ ID NO: 22) was used to measure mRNA levels. PKK mRNA levels were adjusted according to total RNA content, as measured by RIBOGREEN®. The antisense oligonucleotides were tested in a series of experiments that had similar culture conditions. Results are presented as percent inhibition of PKK, relative to untreated control cells.

Setting [1] is: Table 2, PKK mRNA, HepaRG cells, 3,000 nM, electroporation, ~24 h.
[2] abbreviates: Table 4, HepaRG cells, electroporation with 3,000 nM antisense oligonucleotide, approx. 24 hours, PKK mRNA by RT-PCR (RTS3454).
[3] abbreviates: Table 1, PKK mRNA, HepaRG cells, 3,000 nM, electroporation, ~24 h.
The mark [4] stands for this setting: Table 3, HepaRG cells, electroporation with 3,000 nM antisense oligonucleotide, approx. 24 hours, PKK mRNA by RT-PCR (RTS3454).

Turning to “531036 (antisense eG*eT*eG*eT*e[5mC]*dA*d[5mC]*d[5mC]*dT*dT*dT*dG*dG*dA*dA*eG*eG*eT*eA*eG) [compound 531036]”, the “% inhibition” value under setting [1] is listed as 71%. As for “531192 (eG*eA*eG*eT*eG*d[5mC]*d[5mC]*dA*dT*d[5mC]*dT*dT*d[5mC]*dT*d[5mC]*eT*eG*e[5mC]*eA*e[5mC]; antisense) [compound 531192]”, the “% inhibition” value under setting [2] turned out to be 61%. On to “531034 (antisense e[5mC]*eA*eT*eA*eT*dT*dG*dG*dT*dT*dT*dT*dT*dG*dG*eA*eA*eT*eT*e[5mC]) [compound 531034]”, for which, under setting [1], the “% inhibition” value stood at 36%.

In the case of “530993 (e[5mC]*eA*eA*eA*e[5mC]*dA*dT*dT*d[5mC]*dA*d[5mC]*dT*d[5mC]*d[5mC]*dT*eT*eT*eA*eA*e[5mC]; antisense) [compound 530993]”, the “% inhibition” value under setting [3] is on record as 30%.

As for “531150 (antisense eT*e[5mC]*e[5mC]*eT*eT*dA*dA*dT*dA*dG*dT*d[5mC]*dA*dT*dA*eG*e[5mC]*eA*eG*eG) [compound 531150]”, under setting [4], the “% inhibition” value is listed as 48%. “530976 (antisense eA*eT*eA*eT*eG*dG*dT*dG*dT*dT*dT*dT*d[5mC]*dT*dT*eG*eA*eG*eG*eA) [compound 530976]”: the “% inhibition” value under setting [3] is reported as 26%. Still for that read-out and setting: then “530966 (antisense eA*eA*eT*eT*eT*d[5mC]*dT*dG*dA*dA*dA*dG*dG*dG*d[5mC]*eA*e[5mC]*eA*eG*eG) [compound 530966]”, with 58%. As to “531195 (eA*eT*eA*eA*eA*dA*dT*dA*dT*dA*dT*dT*dA*dA*dG*eG*e[5mC]*eA*eA*e[5mC]; antisense) [compound 531195]”, the “% inhibition” value under setting [2] worked out at 61%. Regarding “531102 (eT*eG*e[5mC]*e[5mC]*eT*d[5mC]*dT*dT*dT*dA*dA*dT*dA*dA*dA*eA*eA*e[5mC]*eT*e[5mC]; antisense) [compound 531102]”, the “% inhibition” value under setting [4] worked out at 42%. With “531003 (eA*eA*e[5mC]*e[5mC]*eA*dG*dA*dG*d[5mC]*dT*d[5mC]*d[5mC]*d[5mC]*dT*dT*eG*eT*eG*eT*e[5mC]; antisense) [compound 531003]”, the “% inhibition” value under setting [3] was determined as 49%. As to “531124 (antisense eG*eT*eA*e[5mC]*eT*dA*dA*dA*d[5mC]*dA*dT*d[5mC]*d[5mC]*dT*dA*eA*eG*eT*eG*eA) [compound 531124]”, under setting [4], the “% inhibition” value is given as 2%. In the case of “530931 (antisense e[5mC]*eT*eT*eA*eA*dA*dA*dA*dT*dG*dA*dA*d[5mC]*dG*dG*eT*e[5mC]*eT*eT*e[5mC]) [compound 530931]”, the “% inhibition” value under setting [3] is 29%. Take “531032 (antisense eT*eG*eG*eT*eT*dT*dT*dT*dG*dG*dA*dA*dT*dT*d[5mC]*eA*eG*eT*eG*eT) [compound 531032]”: the “% inhibition” value under setting [1] stood at 67%.

As for “531137 (antisense eT*eG*eT*e[5mC]*eT*dA*d[5mC]*dT*dA*dT*dT*dT*dG*dA*d[5mC]*e[5mC]*eA*eA*eT*eA) [compound 531137]”, the “% inhibition” value under setting [4] is 19%. For “531162 (antisense eA*eA*eT*eT*eT*d[5mC]*d[5mC]*d[5mC]*dA*dG*dA*dT*dG*dT*dA*eT*eT*eA*eG*eT) [compound 531162]”, the “% inhibition” value under setting [2] was 43%. For the substance “531132 (antisense eA*eG*eT*eG*eA*dG*dG*dT*dT*dA*d[5mC]*dT*d[5mC]*dA*d[5mC]*e[5mC]*eA*eG*eA*eG) [compound 531132]”, the “% inhibition” value under setting [4] is on record as 0%.

For the substance “531025 (eT*e[5mC]*eT*e[5mC]*eT*dT*dT*dT*dA*dT*dT*dT*dG*dT*dG*eA*eG*eA*eA*eA; antisense) [compound 531025]”, the “% inhibition” value under setting [1] came out at 34%.

For “531054 (antisense e[5mC]*eT*eT*eT*eA*dT*dA*dG*d[5mC]*d[5mC]*dA*dG*d[5mC]*dA*d[5mC]*eA*eG*eA*e[5mC]*e[5mC]) [compound 531054]”, under setting [1], the “% inhibition” value amounted to 48%. On to “530935 (antisense eG*e[5mC]*eT*eT*eG*dA*dA*dT*dA*dA*dA*dA*dT*d[5mC]*dA*eT*eT*e[5mC]*eT*eG) [compound 530935]”, for which, under setting [3], the “% inhibition” value is reported as 0%. As for “531139 (antisense eT*e[5mC]*eA*e[5mC]*eT*dA*dA*dA*dA*d[5mC]*dA*dA*dA*dA*dA*eT*eA*e[5mC]*eT*eT) [compound 531139]”, the “% inhibition” value under setting [4] stood at 0%. Turning to “531072 (eG*e[5mC]*eT*e[5mC]*eA*dG*dA*dA*dT*dT*dT*dG*dA*d[5mC]*dT*eT*eG*eA*eA*e[5mC]; antisense) [compound 531072]”, the “% inhibition” value under setting [1] came out at 64%. Regarding “531063 (antisense eG*eA*e[5mC]*eA*e[5mC]*d[5mC]*dA*dG*dG*dT*dT*dG*d[5mC]*dT*d[5mC]*e[5mC]*e[5mC]*eT*eG*e[5mC]) [compound 531063]”, the “% inhibition” value under setting [1] amounted to 51%.

“531067 (eT*eA*e[5mC]*eT*e[5mC]*dA*dG*d[5mC]*dG*dA*d[5mC]*dT*dT*dT*dG*eG*eT*eG*eT*eA; antisense) [compound 531067]”: the “% inhibition” value under setting [1] is 31%. Take “530973 (antisense eG*eA*eG*eG*eA*dG*dT*dA*dG*dA*dG*dG*dA*dA*d[5mC]*eT*eT*eG*eG*eT) [compound 530973]”: under setting [3], the “% inhibition” value came to 52%. Turning to “531206 (eG*eA*eA*eA*eT*dG*dT*d[5mC]*dT*dA*dG*d[5mC]*dA*dT*dT*eT*eT*e[5mC]*eT*eA; antisense) [compound 531206]”, the “% inhibition” value under setting [2] turned out to be 28%. For “531014 (eA*eG*e[5mC]*eT*eT*d[5mC]*dA*d[5mC]*d[5mC]*dT*dG*d[5mC]*dA*dG*dG*e[5mC]*eT*e[5mC]*eA*e[5mC]; antisense) [compound 531014]”, the “% inhibition” value under setting [1] was determined as 0%.

For “530952 (antisense e[5mC]*eT*eG*eA*eA*dT*dA*dG*d[5mC]*dA*dA*dA*d[5mC]*dA*d[5mC]*e[5mC]*eT*eT*eG*eG) [compound 530952]”, the “% inhibition” value under setting [3] is 38%. In the case of “531199 (e[5mC]*eT*eT*eT*eG*dA*dA*dT*dA*dG*dA*dA*dA*dA*dT*eG*eA*e[5mC]*eT*eA; antisense) [compound 531199]”, the “% inhibition” value under setting [2] turned out to be 1%. Consider “531105 (e[5mC]*eT*e[5mC]*e[5mC]*eT*d[5mC]*d[5mC]*d[5mC]*d[5mC]*dA*dG*dG*d[5mC]*dT*dG*e[5mC]*eT*e[5mC]*e[5mC]*eT; antisense) [compound 531105]”, for which the “% inhibition” value under setting [4] turned out to be 16%.

As for “531048 (antisense eT*eT*eA*eT*eA*dA*dT*d[5mC]*dT*dT*dG*dA*dT*dA*dT*e[5mC]*eT*eT*eT*eT) [compound 531048]”, the “% inhibition” value under setting [1] amounted to 42%. “531185 (antisense eG*eG*eA*e[5mC]*e[5mC]*dA*dA*dA*dA*d[5mC]*dT*dG*dA*dG*dA*eG*eG*e[5mC]*eA*eG) [compound 531185]”: the “% inhibition” value under setting [2] is 63%. Regarding “530957 (antisense eG*eG*e[5mC]*eA*eA*dG*d[5mC]*dA*d[5mC]*dT*dT*dA*dT*dT*dT*eG*eA*eT*eG*eA) [compound 530957]”, the “% inhibition” value under setting [3] came out at 56%. Turning to “531157 (antisense eA*eA*eG*eT*eG*dA*dA*dT*d[5mC]*dA*dG*dA*dG*d[5mC]*dA*eG*eT*eG*eT*eA) [compound 531157]”, the “% inhibition” value under setting [4] was determined as 46%. On the same count and under the same terms, under “531158 (antisense eA*e[5mC]*e[5mC]*eT*eT*dA*d[5mC]*dA*dA*dG*d[5mC]*dA*dT*d[5mC]*dT*eT*eT*eT*e[5mC]*e[5mC]) [compound 531158]” stands 41%. As to “531077 (eA*eT*eG*e[5mC]*e[5mC]*dA*d[5mC]*dT*d[5mC]*dT*d[5mC]*d[5mC]*dA*dT*dG*e[5mC]*eT*eT*eT*eG; antisense) [compound 531077]”, under setting [1], the “% inhibition” value was determined as 51%.

On to “531057 (antisense e[5mC]*eA*eT*e[5mC]*eT*dT*dT*dT*d[5mC]*d[5mC]*d[5mC]*d[5mC]*d[5mC]*dT*dT*e[5mC]*eT*eT*eT*eA) [compound 531057]”, for which, under setting [1], the “% inhibition” value was 48%.

As to “531182 (antisense eA*eT*eA*eA*eT*d[5mC]*dA*dT*dG*dA*dT*dT*dT*dA*dT*eT*eT*eT*eG*e[5mC]) [compound 531182]”, the “% inhibition” value under setting [2] is on record as 34%. On the same count and under the same terms, under “531174 (antisense eT*eG*eT*eT*eA*dA*dG*dT*dA*dT*dA*dT*dT*dA*dA*e[5mC]*eT*eA*eT*eT) [compound 531174]” stands 10%. For the substance “531065 (antisense e[5mC]*eT*eT*eT*eG*dG*dT*dG*dT*dA*dG*dA*d[5mC]*dA*d[5mC]*e[5mC]*eA*eG*eG*eT) [compound 531065]”, the “% inhibition” value under setting [1] is recorded as 57%. In the case of “531178 (antisense eA*e[5mC]*e[5mC]*eA*e[5mC]*dA*dG*dG*dA*dA*dA*d[5mC]*dT*dG*dT*eA*eG*e[5mC]*eA*eA) [compound 531178]”, the “% inhibition” value under setting [2] stood at 72%.
